Columns and labels:
[1] = biological target: T1, BRAF V600E (Homo sapiens, UniProt P15056, V600E); assay: Cellular assay of target protein degradation, T-Rex 293 cells stably transfected with HA-BRAF_V600E (HA immunofluorescence, high content imaging); assay type: cell-based; settings: T-Rex 293 HA-BRAF V600E; for DC50: half maximal degradation, read-out: BRaf V600E DC50; for Dmax: maximum degradation observed
T1 construct: expressed in transfected cells
How it was run: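 24 h compound exposure, 1 μM–0.1 nM final, 0.1% DMSO, 37 °C; cells induced with 1 ng/mL doxycycline. PFA fix, Triton permeabilize, anti-HA overnight 4 °C, Hoechst/phalloidin counterstain. Output: DC50, Dmax as % control.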

[2] = biological target: T2, BRAF G466V (Homo sapiens, UniProt P15056, G466V); assay: Cellular assay of target protein degradation, T-Rex 293 cells stably transfected with HA-BRAF G466V (HA immunofluorescence, high content imaging); assay type: cell-based; settings: T-Rex 293 HA-BRAF G466V; for DC50: half maximal degradation, read-out: BRaf G466V DC50; for Dmax: maximum degradation observed
T2 construct: expressed in transfected cells
T2 sequence (P15056 whole entry G466V): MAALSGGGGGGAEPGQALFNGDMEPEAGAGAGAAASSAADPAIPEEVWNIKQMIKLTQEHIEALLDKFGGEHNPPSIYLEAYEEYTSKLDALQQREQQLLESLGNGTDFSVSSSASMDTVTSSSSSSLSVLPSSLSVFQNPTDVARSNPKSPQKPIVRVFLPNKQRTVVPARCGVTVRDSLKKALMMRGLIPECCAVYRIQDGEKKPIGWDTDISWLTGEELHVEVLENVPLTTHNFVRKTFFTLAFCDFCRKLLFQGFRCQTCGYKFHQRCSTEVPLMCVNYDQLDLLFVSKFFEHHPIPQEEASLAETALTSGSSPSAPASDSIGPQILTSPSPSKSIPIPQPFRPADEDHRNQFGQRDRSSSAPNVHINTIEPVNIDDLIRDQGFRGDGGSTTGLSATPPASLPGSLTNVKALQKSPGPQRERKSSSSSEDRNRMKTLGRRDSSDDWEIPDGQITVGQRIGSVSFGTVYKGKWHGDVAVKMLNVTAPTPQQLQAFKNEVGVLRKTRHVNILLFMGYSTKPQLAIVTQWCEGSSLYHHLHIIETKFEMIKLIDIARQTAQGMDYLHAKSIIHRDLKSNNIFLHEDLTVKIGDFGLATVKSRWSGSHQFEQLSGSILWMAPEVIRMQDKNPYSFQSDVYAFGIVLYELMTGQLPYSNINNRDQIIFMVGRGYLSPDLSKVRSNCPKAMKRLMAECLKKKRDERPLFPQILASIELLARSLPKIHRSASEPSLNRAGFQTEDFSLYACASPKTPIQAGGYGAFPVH
How it was run: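 24 h compound, 30 nM–3 pM final, 0.1% DMSO, 37° C; HA-BRAF G466V induced with 0.75 ng/mL doxycycline. PFA fix, Triton perm, anti-HA + Alexa fluor secondary, Hoechst/phalloidin counterstain; imaging. DC50, Dmax (% of control).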

T1 sequence (P15056 whole entry V600E): as the sequence (P15056 whole entry G466V) above, with V466G, V600E counted along it

SMILES	DC50 [1] [nM]	Dmax [1] [%]	DC50 [2] [nM]	Dmax [2] [%]
CCc1c(NS(=O)(=O)N2CC[C@@H](F)C2)ccc(F)c1C(=O)c1c[nH]c2ncc(-c3ccc(N4CCC(CN5CCC(c6ccc7c(c6)CN(C6CCC(=O)NC6=O)C7=O)CC5)CC4)cc3)cc12 (stereo partly drawn) [Compound 276, (3R)-N-[3-(5-{4-[4-({4-[2-(2,6-dioxopiperidin-3-yl)-1-oxo-2,3-dihydro-1H-isoindol-5-yl]piperidin-1-yl}methyl)piperidin-1-yl]phenyl}-1H-pyrrolo[2,3-b]pyridine-3-carbonyl)-2-ethyl-4-fluorophenyl]-3-fluoropyrrolidine-1-sulfonamide]	< 5	35 to 70	< 1	35 to 70
C[C@@H]1CC[C@@H](C)N1S(=O)(=O)Nc1ccc(F)c(C(=O)c2c[nH]c3ncc(-c4ccc(N5CCC(CN6CCC(c7ccc8c(c7)CN([C@H]7CCC(=O)NC7=O)C8=O)CC6)CC5)cc4)cc23)c1F [Compound 277, (2R,5R)-N-{3-[5-(4-{4-[(4-{2-[(3S)-2,6-dioxopiperidin-3-yl]-1-oxo-2,3-dihydro-1H-isoindol-5-yl}piperidin-1-yl)methyl]piperidin-1-yl}phenyl)-1H-pyrrolo [2,3-b]pyridine-3-carbonyl]-2,4-difluorophenyl}-2,5-dimethylpyrrolidine-1-sulfonamide]	5 to 50	< 35	10 to 30	> 70
O=C1CC[C@H](N2Cc3cc(C4CCN(CC5CCN(c6ccc(-c7cnc8[nH]cc(C(=O)c9c(F)ccc(NS(=O)(=O)N%10CC[C@@H](O)C%10)c9F)c8c7)cc6)CC5)CC4)ccc3C2=O)C(=O)N1 [Compound 278, (3R)-N-{3-[5-(4-{4-[(4-{2-[(3S)-2,6-dioxopiperidin-3-yl]-1-oxo-2,3-dihydro-1H-isoindol-5-yl}piperidin-1-yl)methyl]piperidin-1-yl}phenyl)-1H-pyrrolo [2,3-b]pyridine-3-carbonyl]-2,4-difluorophenyl}-3-hydroxypyrrolidine-1-sulfonamide]	5 to 50	35 to 70	1 to 10	35 to 70
O=C1CC[C@H](N2Cc3cc(C4CCN(CC5CCN(c6ccc(-c7cnc8[nH]cc(C(=O)c9c(F)ccc(NS(=O)(=O)N%10CC(O)C%10)c9F)c8c7)cc6)CC5)CC4)ccc3C2=O)C(=O)N1 [Compound 279, N-{3-[5-(4-{4-[(4-{2-[(3S)-2,6-dioxopiperidin-3-yl]-1-oxo-2,3-dihydro-1H-isoindol-5-yl}piperidin-1-yl)methyl]piperidin-1-yl}phenyl)-1H-pyrrolo[2,3-b]pyridine-3-carbonyl]-2,4-difluorophenyl}-3-hydroxyazetidine-1-sulfonamide]	5 to 50	< 35	10 to 30	> 70
CN(CCO)S(=O)(=O)Nc1ccc(F)c(C(=O)c2c[nH]c3ncc(-c4ccc(N5CCC(CN6CCC(c7ccc8c(c7)CN([C@H]7CCC(=O)NC7=O)C8=O)CC6)CC5)cc4)cc23)c1F [Compound 280, (3S)-3-(5-{1-[(1-{4-[3-(2,6-difluoro-3-{[(2-hydroxyethyl)(methyl)sulfamoyl]amino}benzoyl)-1H-pyrrolo[2,3-b]pyridin-5-yl]phenyl}piperidin-4-yl)methyl]piperidin-4-yl}-1-oxo-2,3-dihydro-1H-isoindol-2-yl) piperidine-2,6-dione]	5 to 50	35 to 70	1 to 10	35 to 70
CN(C1CC1)S(=O)(=O)Nc1ccc(F)c(C(=O)c2c[nH]c3ncc(-c4ccc(N5CCC(CN6CCC(c7ccc8c(c7)CN([C@H]7CCC(=O)NC7=O)C8=O)CC6)CC5)cc4)cc23)c1F [Compound 281, (3S)-3-(5-{1-[(1-{4-[3-(3-{[cyclopropyl(methyl)sulfamoyl]amino}-2,6-difluorobenzoyl)-1H-pyrrolo[2,3-b]pyridin-5-yl]phenyl}piperidin-4-yl)methyl]piperidin-4-yl}-1-oxo-2,3-dihydro-1H-isoindol-2-yl) piperidine-2,6-dione]	5 to 50	35 to 70	1 to 10	35 to 70
O=C1CC[C@H](N2Cc3cc(C4CCN(CC5CCN(c6ccc(-c7cnc8[nH]cc(C(=O)c9c(F)ccc(NS(=O)(=O)CCO)c9F)c8c7)cc6)CC5)CC4)ccc3C2=O)C(=O)N1 [Compound 282, N-{3-[5-(4-{4-[(4-{2-[(3S)-2,6-dioxopiperidin-3-yl]-1-oxo-2,3-dihydro-1H-isoindol-5-yl}piperidin-1-yl)methyl]piperidin-1-yl}phenyl)-1H-pyrrolo[2,3-b]pyridine-3-carbonyl]-2,4-difluorophenyl}-2-hydroxyethane-1-sulfonamide]	50 to 500	35 to 70	1 to 10	> 70
COc1c(NS(=O)(=O)N2CC[C@@H](F)C2)ccc(F)c1C(=O)c1c[nH]c2ncc(-c3ccc(N4CCC(CN5CCC(c6ccc7c(c6)CN(C6CCC(=O)NC6=O)C7=O)CC5)CC4)cc3)cc12 (stereo partly drawn) [Compound 283, (3R)-N-[3-(5-{4-[4-({4-[2-(2,6-dioxopiperidin-3-yl)-1-oxo-2,3-dihydro-1H-isoindol-5-yl]piperidin-1-yl}methyl)piperidin-1-yl]phenyl}-1H-pyrrolo[2,3-b]pyridine-3-carbonyl)-4-fluoro-2-methoxyphenyl]-3-fluoropyrrolidine-1-sulfonamide]	5 to 50	35 to 70	1 to 10	> 70
CNc1cc(-c2cnc3[nH]cc(C(=O)c4c(F)ccc(NS(=O)(=O)N5CC[C@@H](F)C5)c4F)c3c2)cc(NC)c1N1CCC(CN2CCC(c3ccc4c(c3)CN([C@H]3CCC(=O)NC3=O)C4=O)CC2)CC1 [Compound 284, (3R)-N-{3-[5-(4-{4-[(4-{2-[(3S)-2,6-dioxopiperidin-3-yl]-1-oxo-2,3-dihydro-1H-isoindol-5-yl}piperidin-1-yl)methyl]piperidin-1-yl}-3,5-bis(methylamino)phenyl)-1H-pyrrolo[2,3-b]pyridine-3-carbonyl]-2,4-difluorophenyl}-3-fluoropyrrolidine-1-sulfonamide]	5 to 50	35 to 70	1 to 10	> 70
CNc1cc(-c2cnc3[nH]cc(C(=O)c4c(F)ccc(NS(=O)(=O)N5CC[C@@H](F)C5)c4F)c3c2)cc(NC)c1N1CCC(CN2CCC(c3ccc4c(c3)CN(C3CCC(=O)NC3=O)C4=O)CC2)CC1 (stereo partly drawn) [Compound 285, (3R)-N-[3-(5-{4-[4-({4-[2-(2,6-dioxopiperidin-3-yl)-1-oxo-2,3-dihydro-1H-isoindol-5-yl]piperidin-1-yl}methyl)piperidin-1-yl]-3,5-bis(methylamino)phenyl}-1H-pyrrolo[2,3-b]pyridine-3-carbonyl)-2,4-difluorophenyl]-3-fluoropyrrolidine-1-sulfonamide]	5 to 50	< 35	1 to 10	35 to 70
O=C1CC[C@@H](N2Cc3cc(N4CC(CN5CCN(C6(c7ncc(-c8cnc9[nH]cc(C(=O)c%10c(F)ccc(NS(=O)(=O)N%11CC[C@@H](F)C%11)c%10F)c9c8)cn7)CC6)CC5)C4)ccc3C2=O)C(=O)N1 [Compound 286, (3R)-N-(3-{5-[2-(1-{4-[(1-{2-[(3R)-2,6-dioxopiperidin-3-yl]-1-oxo-2,3-dihydro-1H-isoindol-5-yl}azetidin-3-yl)methyl]piperazin-1-yl}cyclopropyl)pyrimidin-5-yl]-1H-pyrrolo[2,3-b]pyridine-3-carbonyl}-2,4-difluorophenyl)-3-fluoropyrrolidine-1-sulfonamide]	50 to 500	35 to 70	1 to 10	35 to 70
CN(c1ncc(-c2cnc3[nH]cc(C(=O)c4c(F)ccc(NS(=O)(=O)N5CC[C@@H](F)C5)c4F)c3c2)cn1)C1CCN(CC2CCN(c3ccc4c(c3)CN([C@H]3CCC(=O)NC3=O)C4=O)CC2)CC1 [Compound 287, (3R)-N-(3-{5-[2-({1-[(1-{2-[(3S)-2,6-dioxopiperidin-3-yl]-1-oxo-2,3-dihydro-1H-isoindol-5-yl}piperidin-4-yl)methyl]piperidin-4-yl}(methyl)amino)pyrimidin-5-yl]-1H-pyrrolo[2,3-b]pyridine-3-carbonyl}-2,4-difluorophenyl)-3-fluoropyrrolidine-1-sulfonamide]	5 to 50	35 to 70	1 to 10	35 to 70
O=C1CC[C@H](N2Cc3cc(N4CCC(CN5CCN(C6(c7ccc(-c8cnc9[nH]cc(C(=O)c%10c(F)ccc(NS(=O)(=O)N%11CC[C@@H](F)C%11)c%10F)c9c8)cn7)CC6)CC5)CC4)ccc3C2=O)C(=O)N1 [Compound 288, (3R)-N-(3-{5-[6-(1-{4-[(1-{2-[(3S)-2,6-dioxopiperidin-3-yl]-1-oxo-2,3-dihydro-1H-isoindol-5-yl}piperidin-4-yl)methyl]piperazin-1-yl}cyclopropyl)pyridin-3-yl]-1H-pyrrolo[2,3-b]pyridine-3-carbonyl}-2,4-difluorophenyl)-3-fluoropyrrolidine-1-sulfonamide]	50 to 500	35 to 70	> 30	> 70
C[C@@H](c1ncc(-c2cnc3[nH]cc(C(=O)c4c(F)ccc(NS(=O)(=O)N5CC[C@@H](F)C5)c4F)c3c2)cn1)N1CCN(CC2CCN(c3ccc4c(c3)CN([C@H]3CCC(=O)NC3=O)C4=O)CC2)CC1 [Compound 289, (3R)-N-[3-(5-{2-[(1S)-1-{4-[(1-{2-[(3S)-2,6-dioxopiperidin-3-yl]-1-oxo-2,3-dihydro-1H-isoindol-5-yl}piperidin-4-yl)methyl]piperazin-1-yl}ethyl]pyrimidin-5-yl}-1H-pyrrolo[2,3-b]pyridine-3-carbonyl)-2,4-difluorophenyl]-3-fluoropyrrolidine-1-sulfonamide]	50 to 500	35 to 70	10 to 30	35 to 70
